Target: T1, Prostaglandin G/H synthase 2 (Homo sapiens, UniProt P35354)
T1 sequence (P35354 whole entry): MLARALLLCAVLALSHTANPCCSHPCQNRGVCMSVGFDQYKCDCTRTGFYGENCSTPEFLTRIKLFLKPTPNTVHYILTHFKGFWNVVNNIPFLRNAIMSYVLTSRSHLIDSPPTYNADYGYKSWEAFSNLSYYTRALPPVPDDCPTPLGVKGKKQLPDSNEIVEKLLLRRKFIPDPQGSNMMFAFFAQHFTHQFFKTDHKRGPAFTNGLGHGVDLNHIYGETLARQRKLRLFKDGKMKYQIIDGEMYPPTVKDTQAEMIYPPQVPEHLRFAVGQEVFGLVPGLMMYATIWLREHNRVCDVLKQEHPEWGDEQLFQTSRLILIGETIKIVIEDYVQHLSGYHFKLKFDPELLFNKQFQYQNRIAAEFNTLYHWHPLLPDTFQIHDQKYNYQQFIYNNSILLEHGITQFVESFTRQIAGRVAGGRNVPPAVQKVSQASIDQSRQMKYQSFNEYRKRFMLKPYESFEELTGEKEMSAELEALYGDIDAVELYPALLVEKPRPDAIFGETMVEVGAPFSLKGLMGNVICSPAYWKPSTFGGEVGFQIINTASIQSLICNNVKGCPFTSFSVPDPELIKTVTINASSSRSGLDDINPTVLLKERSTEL
Experiment: Inhibitory concentration against COX-2 upon incubation for 15 minutes at 37 degree C

Compound | IC50 [µM]
NS(=O)(=O)c1ccc(-c2nc3ccccc3n2-c2ccc(Cl)cc2)cc1 | 0.2
COc1ccccc1-n1c(-c2ccc(S(N)(=O)=O)cc2)nc2ccccc21 | 8
